# Experiments:
# Assay in all cases: NCI one-dose SRB growth inhibition
# Format in all cases: cell-based
# HCC-2998 = conditions: Homo sapiens, Colon Cancer, 48 h, read-out: GI% HCC-2998
# How it was run: (§1)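 SRB-based cell growth/viability measurement after a 48-hour compound treatment, carried out under the NCI Drug Evaluation Branch method.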
# NCI-H226 = conditions: Homo sapiens, Non-Small Cell Lung Cancer, 48 h, read-out: GI% NCI-H226
# How it was run: as §1
# NCI-H23 = conditions: Homo sapiens, Non-Small Cell Lung Cancer, 48 h, read-out: GI% NCI-H23
# How it was run: as §1
Structure (SMILES),inhibition at 10 µM (HCC-2998) [%],inhibition at 10 µM (NCI-H226) [%],inhibition at 10 µM (NCI-H23) [%]
"Cc1nc(-c2cccs2)ccc1NC(=O)Nc1ccc(F)cc1 [Compound 5h, 1-(4-Fluorophenyl)-3-(2-methyl-6-(thiophen-2-yl)pyridin-3-yl)urea]",14,< 10,16
"CCOC(=O)c1ccc(NC(=O)Nc2ccc(-c3cccs3)nc2C)cc1 [Compound 5j, Ethyl 4-(3-(2-methyl-6-(thiophen-2-yl)pyridin-3-yl)ureido)benzoate]",< 10,< 10,< 10
"COc1ccc(NC(=O)Nc2ccc(-c3ccc(Cl)cc3)nc2C)cc1 [Compound 5f, 1-(6-(4-Chlorophenyl)-2-methylpyridin-3-yl)-3-(4-methoxyphenyl) urea]",< 10,19,< 10
"Cc1nc(-c2ccc(Cl)cc2)ccc1NC(=O)Nc1cccc(C(F)(F)F)c1 [Compound 5e, 1-(6-(4-Chlorophenyl)-2-methylpyridin-3-yl)-3-(3-(trifluoromethyl)phenyl)urea]",< 10,< 10,< 10
"Cc1nc(-c2ccc(Cl)cc2)ccc1NC(=O)Nc1ccc2c(c1)OCO2 [Compound 5g, 1-(Benzo[d][1,3]dioxol-5-yl)-3-(6-(4-chlorophenyl)-2-methylpyridin-3-yl)urea]",< 10,< 10,< 10
"Cc1nc(-c2ccc(F)cc2)ccc1NC(=O)Nc1ccc2c(c1)OCO2 [Compound 5d, 1-(Benzo[d][1, 3]dioxol-5-yl)-3-(6-(4-fluorophenyl)-2-methylpyridin-3-yl)urea]",< 10,< 10,< 10
"Cc1nc(-c2cccs2)ccc1NC(=O)Nc1ccc(Cl)cc1 [Compound 5i, 1-(4-Chlorophenyl)-3-(2-methyl-6-(thiophen-2-yl)pyridin-3-yl)urea]",< 10,< 10,< 10
"Cc1nc(-c2ccc(F)cc2)ccc1NC(=O)Nc1cccc(C(F)(F)F)c1 [Compound 5a, 1-(6-(4-Fluorophenyl)-2-methylpyridin-3-yl)-3-(3-(trifluoromethyl)phenyl)urea]",< 10,18,24
"CCOC(=O)c1ccc(NC(=O)Nc2ccc(-c3ccc(F)cc3)nc2C)cc1 [Compound 5c, Ethyl 4-(3-(6-(4-fluorophenyl)-2-methylpyridin-3-yl)ureido)benzoate]",< 10,12,< 10
